According to patent US12503475B2 (Centessa Pharmaceuticals (UK) Limited, priority 2020, dated 2025):

Molecular target: T1, human orexin type 2 receptor (hOX2R) (Homo sapiens, UniProt O43614)
T1 construct: expressed in transfected cells
T1 sequence (O43614 1-444): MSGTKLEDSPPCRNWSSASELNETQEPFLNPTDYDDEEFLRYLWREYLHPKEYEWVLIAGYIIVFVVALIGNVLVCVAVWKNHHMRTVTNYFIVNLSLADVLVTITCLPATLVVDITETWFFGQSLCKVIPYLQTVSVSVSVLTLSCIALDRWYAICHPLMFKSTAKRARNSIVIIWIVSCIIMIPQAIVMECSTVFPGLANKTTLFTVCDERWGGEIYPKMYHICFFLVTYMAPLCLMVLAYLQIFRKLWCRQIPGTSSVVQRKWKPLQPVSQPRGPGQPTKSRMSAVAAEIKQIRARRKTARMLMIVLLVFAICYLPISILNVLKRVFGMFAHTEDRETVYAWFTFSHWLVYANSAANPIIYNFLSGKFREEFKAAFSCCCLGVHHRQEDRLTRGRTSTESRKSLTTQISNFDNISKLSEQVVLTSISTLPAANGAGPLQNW
Test: Measurement of orexin type 2 receptor agonist activity (FLIPR calcium fluorescence)
Format: cell-based
Settings: CHO cells expressing hOX2R, FLIPR calcium fluorescence; for EC50: read-out: hOx2 pEC50 (converted); for Emax: CHO, read-out: hOx2 Emax (%)
Method: The biological activity of the compounds of the present disclosure may be determined in cells stably expressing either orexin type 2 or orexin type 1 receptor. […] The agonist activity of a compound of the present disclosure may be determined by fluorescence value.
Stable cell line generation.
Measurement of orexin type 2 receptor agonist activity. […] As used herein, E. indicates the value at 10 μM concentration when orexin A is converted to a full agonist (maximum value of agonist activity. 100%).

| EC50 [nM] | Emax [%] | hOx2 pEC50 | Compound |
| --- | --- | --- | --- |
| 1 to 10 | 90 to 100 |  | [2H]c1c([2H])c([2H])c(-c2cccc(C[C@H]3[C@@H](NS(=O)(=O)C(F)F)C4(CC4)CN3C(=O)[C@H]3CCO3)c2F)c([2H])c1[2H] [Compound 173, 1,1-difluoro-N-((6S,7S)-6-((2-fluoro-[1,1′-biphenyl]-3-yl-2′,3′,4′,5′,6′-d5)methyl)-5-((R)-oxetane-2-carbonyl)-5-azaspiro[2.4]heptan-7-yl)methanesulfonamide] |
| 1 to 10 | 90 to 100 |  | CO[C@@H](C)CNC(=O)N1CC2(CC2)[C@H](NS(C)(=O)=O)[C@@H]1Cc1cccc(-c2ccccc2)c1F [Compound 336, (6S,7S)-6-((2-fluoro-[1,1′-biphenyl]-3-yl)methyl)-N-((S)-2-methoxypropyl)-7-(methylsulfonamido)-5-azaspiro[2.4]heptane-5-carboxamide] |
| 1 to 10 | 90 to 100 |  | O=C(NC(CF)CF)N1CC2(CC2)[C@H](NS(=O)(=O)CF)[C@@H]1Cc1cccc(-c2ccccc2)c1F [Compound 369, (6S,7S)-N-(1,3-difluoropropan-2-yl)-6-((2-fluoro-[1,1′-biphenyl]-3-yl)methyl)-7-((fluoromethyl)sulfonamido)-5-azaspiro[2.4]heptane-5-carboxamide] |
| 1 to 10 | 90 to 100 |  | O=C([C@H](O)C(F)(F)F)N1CC2(CC2)[C@H](NS(=O)(=O)CF)[C@@H]1Cc1cccc(-c2ccccc2)c1 [Compound 94, N-((6S,7S)-6-([1,1′-biphenyl]-3-ylmethyl)-5-((S)-3,3,3-trifluoro-2-hydroxypropanoyl)-5-azaspiro[2.4]heptan-7-yl)-1-fluoromethanesulfonamide] |
| 1 to 10 | 90 to 100 |  | O=C(NCC(F)(F)F)N1CC2(CC2)[C@H](NS(=O)(=O)CF)[C@@H]1Cc1cccc(-c2ccccc2)c1F [Compound 211, (6S,7S)-6-((2-fluoro-[1,1′-biphenyl]-3-yl)methyl)-7-((fluoromethyl)sulfonamido)-N-(2,2,2-trifluoroethyl)-5-azaspiro[2.4]heptane-5-carboxamide] |
| 1 to 10 | 90 to 100 |  | O=C(NCC1(F)CC1)N1CC2(CC2)[C@H](NS(=O)(=O)CF)[C@@H]1Cc1cccc(-c2cc(F)cc(F)c2)c1F [Compound 412, (6S,7S)-N-((1-fluorocyclopropyl)methyl)-7-((fluoromethyl)sulfonamido)-6-((2,3′,5′-trifluoro-[1,1′-biphenyl]-3-yl)methyl)-5-azaspiro[2.4]heptane-5-carboxamide] |
| 10 to 100 | 90 to 100 |  | COC1CN(C(=O)N2CC3(CC3)C(NS(C)(=O)=O)C2Cc2cccc(-c3ccccc3)c2F)C1 (racemic) [Compound 46, N-(6-((2-fluoro-[1,1′-biphenyl]-3-yl)methyl)-5-(3-methoxyazetidine-1-carbonyl)-5-azaspiro[2.4]heptan-7-yl)methanesulfonamide] |
| 1 to 10 | 90 to 100 |  | O=C([C@H]1CCO1)N1CC2(CC2)[C@H](NS(=O)(=O)C(F)F)[C@@H]1Cc1cccc(-c2cc(F)ccc2F)c1F [Compound 171, 1,1-difluoro-N-((6S,7S)-5-((R)-oxetane-2-carbonyl)-6-((2,2′,5′-trifluoro-[1,1′-biphenyl]-3-yl)methyl)-5-azaspiro[2A]heptan-7-yl)methanesulfonamide] |
| 1 to 10 | 90 to 100 |  | CN(C)S(=O)(=O)N[C@@H]1[C@H](Cc2cc(F)cc(-c3ccccc3)c2F)N(C(=O)[C@H](O)CF)CC12CC2 [Compound 353] |
| 1 to 10 | 90 to 100 |  | CNS(=O)(=O)N[C@@H]1[C@H](Cc2cccc(-c3ccccc3)c2)N(C(=O)[C@H]2CCO2)CC12CC2 [Compound 71] |
|  | 70 to 80 | *** (pEC50 ranging between 7.0 and 8.0) | COc1c(C[C@H]2[C@@H](NS(C)(=O)=O)C3(CC3)CN2C(=O)C2CC(F)C2)cccc1-c1ccccc1 (stereo partly drawn) [Compound 339, N-((6S,7S)-5-(3-fluorocyclobutane-1-carbonyl)-6-((2-methoxy-[1,1′-biphenyl]-3-yl)methyl)-5-azaspiro[2.4]heptan-7-yl)methanesulfonamide] |
| 1 to 10 | 90 to 100 |  | CC(C)(O)C(=O)N1CC2(CC2)[C@H](NS(=O)(=O)CF)[C@@H]1Cc1cccc(-c2ccccc2)c1F [Compound 134, 1-fluoro-N-((6S,7S)-6-((2-fluoro-[1,1′-biphenyl]-3-yl)methyl)-5-(2-hydroxy-2-methylpropanoyl)-5-azaspiro[2.4]heptan-7-yl)methanesulfonamide] |
| 1 to 10 | 90 to 100 |  | CCS(=O)(=O)NC1C(Cc2cccc(-c3ccccc3)c2)N(C(=O)N2CCC2)CC12CC2 (racemic) [Compound 3] |
| 10 to 100 | 80 to 90 |  | O=C([C@H]1CCO1)N1CC2(CC2)[C@H](NS(=O)(=O)N2CCCC2)[C@@H]1Cc1cccc(-c2ccccc2)c1 [Compound 96, N-((6S,7S)-6-([1,1′-biphenyl]-3-ylmethyl)-5-((R)-oxetane-2-carbonyl)-5-azaspiro[2.4]heptan-7-yl)pyrrolidine-1-sulfonamide] |
| 10 to 100 | 80 to 90 |  | CC(F)(F)C(=O)N1CC2(CC2)[C@H](NS(C)(=O)=O)[C@@H]1Cc1cccc(-c2cccc(F)c2)c1F [Compound 294, N-((6S,7S)-6-((2,3'-difluoro-[1,1′-biphenyl]-3-yl)methyl)-5-(2,2-difluoropropanoyl)-5-azaspiro[2.4]heptan-7-yl)methanesulfonamide] |
| 0.0794 to 1 | 90 to 100 |  | O=C([C@H]1CCO1)N1CC2(CC2)[C@H](NS(=O)(=O)C2CC2)[C@@H]1Cc1cccc(-c2cc(F)cc(F)c2)c1F [Compound 223, N-((6S,7S)-5-((R)-oxetane-2-carbonyl)-6-((2,3′,5′-trifluoro-[1,1′-biphenyl]-3-yl)methyl)-5-azaspiro[2.4]heptan-7-yl)cyclopropanesulfonamide] |
| 10 to 100 | 90 to 100 |  | COCCOCCS(=O)(=O)N[C@@H]1[C@H](Cc2cccc(-c3ccccc3)c2)N(C(=O)[C@H]2CCO2)CC12CC2 [Compound 74, N-((6S,7S)-6-([1,1′-biphenyl]-3-ylmethyl)-5-((R)-oxetane-2-carbonyl)-5-azaspiro[2.4]heptan-7-yl)-2-(2-methoxyethoxy)ethane-1-sulfonamide] |
| 1 to 10 | 90 to 100 |  | N#C[C@]1(C(=O)N2CC3(CC3)[C@H](NS(=O)(=O)C(F)F)[C@@H]2Cc2cccc(-c3ccccc3)c2F)CCO1 [Compound 408, N-((6S,7S)-5-((S)-2-cyanooxetane-2-carbonyl)-6-((2-fluoro-[1,1′-biphenyl]-3-yl)methyl)-5-azaspiro[2.4]heptan-7-yl)-1,1-difluoromethanesulfonamide] |
| 10 to 100 | 90 to 100 |  | O=C([C@H]1CCO1)N1CC2(CC2)[C@H](NS(=O)(=O)c2c[nH]cn2)[C@@H]1Cc1cccc(-c2ccccc2)c1 [Compound 75, N-((6S,7S)-6-([1,1′-biphenyl]-3-ylmethyl)-5-((R)-oxetane-2-carbonyl)-5-azaspiro[2.4]heptan-7-yl)-1H-imidazole-4-sulfonamide] |
| 0.0794 to 1 | 90 to 100 |  | O=C([C@H]1CCO1)N1CC2(CC2)[C@H](NS(=O)(=O)CF)[C@@H]1Cc1cccc(-c2cccc(C(F)F)c2)c1F [Compound 196, N-((6S,7S)-6-((3′-(difluoromethyl)-2-fluoro-[1,1′-biphenyl]-3-yl)methyl)-5-((R)-oxetane-2-carbonyl)-5-azaspiro[2.4]heptan-7-yl)-1-fluoromethanesulfonamide] |
